Data published in paper PMC5516028, “Molecular tools for GABAA receptors: High affinity ligands for β1-containing subtypes” (Scientific Reports, 2017).
Like-named read-outs stand apart in the source and are kept apart here.

Key:
Format in all cases: cell-based
α1β1 GABAA receptors = biological target: T1, α1β1 GABAA receptors (Rattus norvegicus, UniProt P15431+P62813); assay: Two electrode voltage clamp in Xenopus laevis oocytes, α1β1; conditions: for EC50: read-out: EC50
T1 construct: expressed in transfected cells; host or cells: Xenopus laevis oocytes, mRNA injected
T1 sequence (P62813 28-455): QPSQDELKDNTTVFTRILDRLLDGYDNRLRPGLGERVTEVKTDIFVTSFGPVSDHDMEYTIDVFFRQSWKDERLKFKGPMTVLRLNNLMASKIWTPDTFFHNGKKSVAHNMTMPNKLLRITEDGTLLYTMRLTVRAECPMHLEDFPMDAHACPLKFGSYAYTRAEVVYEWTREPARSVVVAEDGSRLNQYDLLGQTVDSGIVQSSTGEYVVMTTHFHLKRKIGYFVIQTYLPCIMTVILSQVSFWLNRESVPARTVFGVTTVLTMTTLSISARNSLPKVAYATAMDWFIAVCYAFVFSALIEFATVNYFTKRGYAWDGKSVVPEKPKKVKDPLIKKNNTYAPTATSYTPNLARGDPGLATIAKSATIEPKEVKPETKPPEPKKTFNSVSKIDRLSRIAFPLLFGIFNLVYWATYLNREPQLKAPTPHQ
T1 sequence (P15431 26-474): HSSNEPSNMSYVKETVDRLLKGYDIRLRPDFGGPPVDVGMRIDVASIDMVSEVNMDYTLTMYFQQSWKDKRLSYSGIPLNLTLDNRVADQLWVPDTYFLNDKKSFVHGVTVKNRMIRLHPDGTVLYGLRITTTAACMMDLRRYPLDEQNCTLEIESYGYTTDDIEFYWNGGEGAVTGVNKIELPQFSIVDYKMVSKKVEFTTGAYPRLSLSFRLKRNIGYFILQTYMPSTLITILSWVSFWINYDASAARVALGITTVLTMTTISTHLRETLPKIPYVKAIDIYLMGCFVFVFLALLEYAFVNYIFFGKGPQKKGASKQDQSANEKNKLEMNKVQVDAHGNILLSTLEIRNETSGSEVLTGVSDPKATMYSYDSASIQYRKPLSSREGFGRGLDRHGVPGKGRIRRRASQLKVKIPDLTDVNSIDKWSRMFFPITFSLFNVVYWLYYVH
From the text: (§1) cDNA’s of rat GABAA receptor subunits α1, α4, β1, β2, β3 and γ2S were cloned as described. cDNAs of the rat subunits α2, α3 and α5 were gifts from P. Malherbe, that of α6 and γ1 were gifts of P. Seeburg and that of δ was a gift of C. Czajkowski. The mutants were constructed using the Q5 Site-Directed Mutagenesis Kit (New England Biolabs) following manufacturer’s instruction. We used the wild-type rat β3-pCI vector as template and the primers […] and […] resulting in a substitution of amino acid N41 (AAC) to R (AGG). We used the wild-type rat β1-pCI vector as template and the primers […] and […] resulting in a substitution of amino acid R41 (CGG) to N (AAC). The mutated subunits were confirmed by sequencing.
(§2) In vitro transcription of mRNA was based on the cDNA expression vectors encoding for rat GABAA receptor subunits α1–6, β1-3, γ1,2, δ and the two β mutants (β1R41N and β3N41R)[40]. After linearizing the cDNA vectors with appropriate restriction endonucleases, the cDNA was purified and concentrated with the DNA Clean and Contentrator ^TM Kit (Zymoresearch, Catalog No. D4005). Capped transcripts of the purified cDNA were produced using the mMESSAGE mMACHINE® T7 transcription kit (Ambion, TX, USA) and polyadenylated using the Ambion PolyA tailing kit (Ambion). After transcription and polyadenylation the RNA was purified with the MEGAclear ^TM Kit (Ambion, Catalog No. AM1908). The final RNA concentration was measured on NanoDrop® ND-1000 and finally diluted and stored in diethylpyrocarbonate-treated water at −80 °C. For the microinjection, the RNA of αβ receptor combinations was mixed at 1:1 ratio (which leads to αβ receptors that consist of predominantly 3 beta and 2 alpha subunits[27]), for αkβlγm (k = 1–3, l = 1, 3, m = 1, 2) receptors at 1:1:5 ratio, for αkβ3γ2 (k = 4–6) and αkβlδ (k = 1, 4 and 6, l = 1, 3) receptor combinations at 3:1:5 ratio.
(§3) Mature female Xenopus laevis (Nasco, WI) were anesthetized in a bath of ice-cold 0.17% Tricain (Ethyl-m-aminobenzoate, Sigma, MO) before decapitation in full accordance with all rules of the Austrian animal protection law (see http://www.ris.bka.gv.at/Dokumente/BgblAuth/BGBLA_2012_I_114/BGBLA_2012_I_114.pdf) and the Austrian animal experiment by-laws (see https://www.ris.bka.gv.at/Dokumente/BgblAuth/BGBLA_2012_II_522/BGBLA_2012_II_522.pdf) which implement the European Directive 2010/63/EU (see http://eur-lex.europa.eu/LexUriServ/LexUriServ.do?uri=OJ:L:2010:276:0033:0079:en:PDF) into the Austrian law (all information accessed on July 27, 2016). The frog’s ovaries were transferred to ND96 medium (96 mM NaCl, 2 mM KCl, 1 mM MgCl2, 5 mM HEPES; pH 7.5). Stage 5–6 oocytes with the follicle cell layer around them were roughly dissected with forceps into packages of 10–15 cells and washed in Ca^2+-free ND96 medium. Cells were then digested with collagenase (type IA, Sigma, NO, 1 mg/mL ND96) at 18 °C shaking at 30 rpm for 30–60 minutes and gently defolliculated with the aid of a glass pipette with appropriate tip diameter and a platinum loop. Defolliculated cells were stored at 18 °C for at least 6 hours in ND96 solution containing penicillin G (10000 IU/100 mL) and streptomycin (10 mg/100 mL) in order to preselect and exclude damaged cells from further treatment. Healthy defolliculated oocytes were injected with an aqueous solution of mRNA. A total of 4.5 ng of mRNA per oocyte was injected with a Nanoject II (Drummond). After injection of mRNA, oocytes were incubated at 18 °C (ND96 + antibiotic) for 2–3 days for αβ receptors and for 3–4 days for αβγ or αβδ receptors before recording. When cells were measured at later time points, oocytes were stored at +4 °C instead of 18 °C.
(§4) For electrophysiological recordings, oocytes were placed on a nylon-grid in a bath of Ca^2+-containing NDE solution medium [96 mM NaCl, 5 mM HEPES-NaOH (pH 7.5), 2 mM KCl, 1 mM MgCl2, 1.8 mM CaCl2].

α1β2 GABAA receptors = biological target: T2, α1β2 GABAA receptors (Rattus norvegicus, UniProt P62813+P63138); assay: Two electrode voltage clamp in Xenopus laevis oocytes, α1β2
T2 construct: expressed in transfected cells; host or cells: Xenopus laevis oocytes, mRNA injected
T2 sequence (P62813 28-455): as the sequence (P62813 28-455) above
T2 sequence (P63138 25-474 limits assumed): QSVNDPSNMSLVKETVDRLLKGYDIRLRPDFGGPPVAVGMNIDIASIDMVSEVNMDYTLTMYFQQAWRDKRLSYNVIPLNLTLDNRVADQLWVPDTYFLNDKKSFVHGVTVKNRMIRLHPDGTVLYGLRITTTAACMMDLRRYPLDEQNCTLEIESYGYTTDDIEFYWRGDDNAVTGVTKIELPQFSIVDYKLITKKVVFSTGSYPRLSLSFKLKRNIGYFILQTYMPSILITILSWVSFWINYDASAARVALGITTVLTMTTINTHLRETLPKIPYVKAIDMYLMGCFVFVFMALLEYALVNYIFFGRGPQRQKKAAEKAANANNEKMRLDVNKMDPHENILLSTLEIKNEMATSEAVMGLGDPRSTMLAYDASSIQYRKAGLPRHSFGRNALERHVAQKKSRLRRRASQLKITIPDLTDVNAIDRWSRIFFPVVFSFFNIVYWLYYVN
From the text: as §1, §2, §3, §4

α1β3 GABAA receptors = biological target: T3, α1β3 GABAA receptors (Rattus norvegicus, UniProt P62813+P63079); assay: Two electrode voltage clamp in Xenopus laevis oocytes, α1β3
T3 construct: expressed in transfected cells; host or cells: Xenopus laevis oocytes, mRNA injected
T3 sequence (P62813 28-455): as the sequence (P62813 28-455) above
T3 sequence (P63079 26-473): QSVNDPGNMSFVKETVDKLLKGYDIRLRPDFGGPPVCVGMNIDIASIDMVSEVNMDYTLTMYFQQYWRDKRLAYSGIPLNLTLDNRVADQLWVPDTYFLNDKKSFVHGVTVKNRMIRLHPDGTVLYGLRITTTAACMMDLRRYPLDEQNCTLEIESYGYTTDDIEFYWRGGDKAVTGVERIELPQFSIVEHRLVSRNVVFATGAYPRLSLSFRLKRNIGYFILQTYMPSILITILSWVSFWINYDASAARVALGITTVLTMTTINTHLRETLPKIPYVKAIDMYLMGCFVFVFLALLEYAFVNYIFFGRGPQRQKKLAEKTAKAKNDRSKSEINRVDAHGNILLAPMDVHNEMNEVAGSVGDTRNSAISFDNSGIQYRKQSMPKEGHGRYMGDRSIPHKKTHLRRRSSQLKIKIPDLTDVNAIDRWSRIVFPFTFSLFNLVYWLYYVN
From the text: as §1, §2, §3, §4

α1β1R41N GABAA receptors = biological target: T4, α1β1R41N GABAA receptors (Rattus norvegicus, UniProt P15431+P62813, R66N); assay: Two electrode voltage clamp in Xenopus laevis oocytes, mutant α1β1R41N
T4 construct: expressed in transfected cells; host or cells: Xenopus laevis oocytes, mRNA injected
T4 sequence (P62813 28-455): as the sequence (P62813 28-455) above
T4 sequence (P15431 26-474 R66N): as the sequence (P15431 26-474) above, with R41N counted along it
From the text: as §1, §2, §3, §4

α1β3N41R GABAA receptors = biological target: T5, α1β3N41R GABAA receptors (Rattus norvegicus, UniProt P62813+P63079, N66R); assay: Two electrode voltage clamp in Xenopus laevis oocytes, mutant α1β3N41R; conditions: co-applied with GABA EC3-5, read-out: EC50 values for the mutated receptors
T5 construct: expressed in transfected cells; host or cells: Xenopus laevis oocytes, mRNA injected
T5 sequence (P62813 28-455): as the sequence (P62813 28-455) above
T5 sequence (P63079 26-473 N66R): as the sequence (P63079 26-473) above, with N41R counted along it
From the text: as §1, §2, §3, §4

activity at 0.001 µM (α1β1 GABAA receptors; read-out: efficacy, % of control current (GABA EC3-5 = 100%), α1β1, 1 nM): 100%
activity at 0.003 µM (α1β1 GABAA receptors; read-out: efficacy, % of control current (GABA EC3-5 = 100%), α1β1, 3 nM): 100%
activity at 0.03 µM (α1β1 GABAA receptors; read-out: efficacy, % of control current (GABA EC3-5 = 100%), α1β1, 30 nM): 127 ± 1%
activity at 0.3 µM (α1β1 GABAA receptors; read-out: efficacy, % of control current (GABA EC3-5 = 100%), α1β1, 300 nM): 397 ± 54.9%
activity at 30 µM (α1β1 GABAA receptors; read-out: efficacy, % of control current (GABA EC3-5 = 100%), α1β1, 30 µM): 218 ± 11%
Hill slope (nH) (α1β1 GABAA receptors; α1β1): 1.8±0.4
EC50 (α1β1 GABAA receptors; α1β1 (α1+/β1− interface)): ~0.2 µM
EC50 (α1β1 GABAA receptors; α1β1, co-applied with GABA EC3-5): 0.21 µM
EC50 (α1β2 GABAA receptors): 2.62 µM
activity at 0.003 µM (α1β2 GABAA receptors; read-out: efficacy, % of control current (GABA EC3-5 = 100%), α1β2, 3 nM): 100%
activity at 0.03 µM (α1β2 GABAA receptors; read-out: efficacy, % of control current (GABA EC3-5 = 100%), α1β2, 30 nM): 100%
activity at 0.3 µM (α1β2 GABAA receptors; read-out: efficacy, % of control current (GABA EC3-5 = 100%), α1β2, 300 nM): 166 ± 7.9%
activity at 3 µM (α1β2 GABAA receptors; read-out: efficacy, % of control current (GABA EC3-5 = 100%), α1β2, 3 µM): 689 ± 82.9%
Hill slope (nH) (α1β2 GABAA receptors; α1β2): 1.3±0.5
activity at 0.3 µM (α1β3 GABAA receptors; read-out: efficacy, % of control current (GABA EC3-5 = 100%), α1β3, 300 nM): 149 ± 15.8%
activity at 1 µM (α1β3 GABAA receptors; read-out: efficacy, % of control current (GABA EC3-5 = 100%), α1β3, 1 µM): 242 ± 16%
activity at 3 µM (α1β3 GABAA receptors; read-out: efficacy, % of control current (GABA EC3-5 = 100%), α1β3, 3 µM): 654 ± 109%
Hill slope (nH) (α1β3 GABAA receptors; α1β3): 1.9±0.5
EC50 (α1β3 GABAA receptors; α1β3, co-applied with GABA EC3-5, read-out: EC50): 3.13 µM
EC50 (α1β3 GABAA receptors; α1β3, log of EC50, sign as printed, read-out: LogEC50 (converted)): 3.09 µM
current as % of control at 0.1 µM (α1β1R41N GABAA receptors; 100nM, read-out: % of control current at EC3-5): 80 ± 10%
current as % of control at 0.3 µM (α1β1R41N GABAA receptors; 300nM, read-out: % of control current at EC3-5): 85 ± 12%
current as % of control at 1 µM (α1β1R41N GABAA receptors; 1μM, read-out: % of control current at EC3-5): 110 ± 20%
current as % of control at 3 µM (α1β1R41N GABAA receptors; 3µM, read-out: % of control current at EC3-5): 150 ± 25%
current as % of control at 10 µM (α1β1R41N GABAA receptors; 10μM, read-out: % of control current at EC3-5): 180 ± 45%
current as % of control at 30 µM (α1β1R41N GABAA receptors; 30μM, read-out: % of control current at EC3-5): 140 ± 15%
EC50 (α1β1R41N GABAA receptors; co-applied with GABA EC3-5): 1.2 µM
EC50 (α1β3N41R GABAA receptors): 1.2 µM
SMILES: COc1ccc(-n2nc3c4cc(OC)ccc4[nH]cc-3c2=O)cc1 [Compound 4, 8-Methoxy-2-(4-methoxyphenyl)-2,5-dihydro-3H-pyrazolo[4,3-c]quinolin-3-one]
